PubChem BioAssay AID2060512 (Molecular Pharmacology Branch, DTP, NCI, 2025)
pIC50: −log10 of the molar value.

Test system: 186277-243-T-J2-PDC complex spheroid viability
Test: Anticancer human tumor 186277-243-T-J2-PDC patient-derived colon adenocarcinoma cell line growth inhibition [GQUAD]
Details: for pIC50: curve of first compound; for viability, T/C: stronger effect = lower value
Outline: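 Tumor cells were grown as complex spheroids with HUVEC endothelial cells and mesenchymal stem cells as stroma. G-quadruplex stabilizers were combined with targeted agents over half-log dilutions from near the clinical Cmax, or from 10 microM.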

[1] = second compound 0.0316 µM, first compound 0.0316 µM
[2] = second compound 0.0316 µM, first compound 0.1 µM
[3] = second compound 0.0316 µM, first compound 0.316 µM
[4] = second compound 0.0316 µM, first compound 1 µM
[5] = second compound 0.0316 µM, first compound 3.16 µM
[6] = second compound 0.0316 µM, first compound 10 µM
[7] = second compound 0.1 µM, first compound 0.0316 µM
[8] = second compound 0.1 µM, first compound 0.1 µM
[9] = second compound 0.1 µM, first compound 0.316 µM
[10] = second compound 0.1 µM, first compound 1 µM
[11] = second compound 0.1 µM, first compound 3.16 µM
[12] = second compound 0.1 µM, first compound 10 µM
[13] = second compound 0.316 µM, first compound 0.0316 µM
[14] = second compound 0.316 µM, first compound 0.1 µM
[15] = second compound 0.316 µM, first compound 0.316 µM
[16] = second compound 0.316 µM, first compound 1 µM
[17] = second compound 0.316 µM, first compound 3.16 µM
[18] = second compound 0.316 µM, first compound 10 µM
[19] = second compound 1 µM, first compound 0.0316 µM
[20] = second compound 1 µM, first compound 0.1 µM
[21] = second compound 1 µM, first compound 0.316 µM
[22] = second compound 1 µM, first compound 1 µM
[23] = second compound 1 µM, first compound 3.16 µM
[24] = second compound 1 µM, first compound 10 µM
[25] = second compound 3.16 µM, first compound 0.0316 µM
[26] = second compound 3.16 µM, first compound 0.1 µM
[27] = second compound 3.16 µM, first compound 0.316 µM
[28] = second compound 3.16 µM, first compound 1 µM
[29] = second compound 3.16 µM, first compound 3.16 µM
[30] = second compound 3.16 µM, first compound 10 µM
[31] = second compound 10 µM, first compound 0.0316 µM
[32] = second compound 10 µM, first compound 0.1 µM
[33] = second compound 10 µM, first compound 0.316 µM
[34] = second compound 10 µM, first compound 1 µM
[35] = second compound 10 µM, first compound 3.16 µM
[36] = second compound 10 µM, first compound 10 µM
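Also: spheroids exposed to drugs for 7 days.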
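For viability, T/C in this document: 100% = DMSO vehicle control viability.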

CC1COCCN1c1cc(-c2ccnn2C)c2ccnc(-c3ccn[nH]3)c2n1 (stereo not drawn) + Cc1cnc(CNC(=O)c2c(=O)c3ccc(N4CCCN(C)CC4)nc3n3c2sc2ccccc23)cn1 gave a pIC50 (second compound 0.0316 µM) of over 7.50, a pIC50 (second compound 0.1 µM) of over 7.50 and a pIC50 (second compound 0.316 µM) of over 7.50. It also gave a pIC50 (second compound 1 µM) of over 7.50, a pIC50 (second compound 3.16 µM) of over 7.50 and a pIC50 (second compound 10 µM) of over 7.50. The viability, T/C [1] was 34.5%, the viability, T/C [2] was 16.1% and the viability, T/C [3] was 9.69%. For the same compound, the viability, T/C [4] was 5.33%, the viability, T/C [5] was 6.04% and the viability, T/C [6] was 5.15%. For the same compound, the viability, T/C [7] was 46.1%, the viability, T/C [8] was 22.2% and the viability, T/C [9] was 11.5%. It also gave a viability, T/C [10] of 6.17%, a viability, T/C [11] of 6.04% and a viability, T/C [12] of 5.5%. For the same compound, the viability, T/C [13] was 46.5%, the viability, T/C [14] was 30% and the viability, T/C [15] was 21%. For the same compound, the viability, T/C [16] was 10.3%, the viability, T/C [17] was 6.67% and the viability, T/C [18] was 5.76%. It also gave a viability, T/C [19] of 35.3%, a viability, T/C [20] of 31.9% and a viability, T/C [21] of 24.9%. It also gave a viability, T/C [22] of 17.1%, a viability, T/C [23] of 10.4% and a viability, T/C [24] of 5.91%. For the same compound, the viability, T/C [25] was 32.1%, the viability, T/C [26] was 28.4% and the viability, T/C [27] was 26.2%. It also gave a viability, T/C [28] of 17.8%, a viability, T/C [29] of 13.2% and a viability, T/C [30] of 6.37%. The viability, T/C [31] was 27.9%, the viability, T/C [32] was 26% and the viability, T/C [33] was 24.6%. It also gave a viability, T/C [34] of 17.3%, a viability, T/C [35] of 12% and a viability, T/C [36] of 6.6%.
In the case of CC(C)n1c(=O)n(C)c2cnc3cc(F)c(-c4ccc(OCCCN5CCCCC5)nc4)cc3c21 + Cc1[nH]c2ccc(F)cc2c1-c1nc2c3cccnc3c3ncccc3c2[nH]1, the pIC50 (second compound 0.0316 µM) was under 5.00, the pIC50 (second compound 0.1 µM) was under 5.00 and the pIC50 (second compound 0.316 µM) was under 5.00. For the same compound, the pIC50 (second compound 1 µM) was under 5.00, the pIC50 (second compound 3.16 µM) was under 5.00 and the pIC50 (second compound 10 µM) was under 5.00. For the same compound, the viability, T/C [1] was 102%, the viability, T/C [2] was 94.9% and the viability, T/C [3] was 106%. It also gave a viability, T/C [4] of 95.5%, a viability, T/C [5] of 101% and a viability, T/C [6] of 83.6%. It also gave a viability, T/C [7] of 108%, a viability, T/C [8] of 91.4% and a viability, T/C [9] of 99.6%. For the same compound, the viability, T/C [10] was 104%, the viability, T/C [11] was 93.6% and the viability, T/C [12] was 89.2%. The viability, T/C [13] was 83.3%, the viability, T/C [14] was 105% and the viability, T/C [15] was 101%. It also gave a viability, T/C [16] of 89.5%, a viability, T/C [17] of 113% and a viability, T/C [18] of 98.5%. The viability, T/C [19] was 87.9%, the viability, T/C [20] was 89.8% and the viability, T/C [21] was 104%. The viability, T/C [22] was 102%, the viability, T/C [23] was 100% and the viability, T/C [24] was 97.7%. It also gave a viability, T/C [25] of 91.7%, a viability, T/C [26] of 90.2% and a viability, T/C [27] of 105%. For the same compound, the viability, T/C [28] was 103%, the viability, T/C [29] was 103% and the viability, T/C [30] was 96.3%. The viability, T/C [31] was 96%, the viability, T/C [32] was 94.7% and the viability, T/C [33] was 104%. The viability, T/C [34] was 104%, the viability, T/C [35] was 89% and the viability, T/C [36] was 93.3%.
With Cn1ncnc1[C@H]1c2n[nH]c(=O)c3cc(F)cc(c23)N[C@@H]1c1ccc(F)cc1 + Cc1[nH]c2ccc(F)cc2c1-c1nc2c3cccnc3c3ncccc3c2[nH]1 the pIC50 (second compound 0.0316 µM) was under 6.50, the pIC50 (second compound 0.1 µM) was under 6.50 and the pIC50 (second compound 0.316 µM) was under 6.50. It also gave a pIC50 (second compound 1 µM) of under 6.50, a pIC50 (second compound 3.16 µM) of under 6.50 and a pIC50 (second compound 10 µM) of under 6.50. For the same compound, the viability, T/C (second compound 0.0316 µM, first compound 0.000999 µM) was 112%, the viability, T/C (second compound 0.0316 µM, first compound 0.00316 µM) was 99.2% and the viability, T/C (second compound 0.0316 µM, first compound 0.00999 µM) was 94.8%. For the same compound, the viability, T/C [1] was 94.2%, the viability, T/C (second compound 0.0316 µM, first compound 0.0999 µM) was 98.1% and the viability, T/C [3] was 89.3%. For the same compound, the viability, T/C (second compound 0.1 µM, first compound 0.000999 µM) was 93.5%, the viability, T/C (second compound 0.1 µM, first compound 0.00316 µM) was 98.2% and the viability, T/C (second compound 0.1 µM, first compound 0.00999 µM) was 101%. For the same compound, the viability, T/C [7] was 91.7%, the viability, T/C (second compound 0.1 µM, first compound 0.0999 µM) was 84.5% and the viability, T/C [9] was 95.6%. The viability, T/C (second compound 0.316 µM, first compound 0.000999 µM) was 86.3%, the viability, T/C (second compound 0.316 µM, first compound 0.00316 µM) was 93.1% and the viability, T/C (second compound 0.316 µM, first compound 0.00999 µM) was 96.7%. The viability, T/C [13] was 103%, the viability, T/C (second compound 0.316 µM, first compound 0.0999 µM) was 91.7% and the viability, T/C [15] was 88.7%. It also gave a viability, T/C (second compound 1 µM, first compound 0.000999 µM) of 85.5%, a viability, T/C (second compound 1 µM, first compound 0.00316 µM) of 101% and a viability, T/C (second compound 1 µM, first compound 0.00999 µM) of 98.4%. It also gave a viability, T/C [19] of 102%, a viability, T/C (second compound 1 µM, first compound 0.0999 µM) of 102% and a viability, T/C [21] of 89.6%. It also gave a viability, T/C (second compound 3.16 µM, first compound 0.000999 µM) of 103%, a viability, T/C (second compound 3.16 µM, first compound 0.00316 µM) of 97.7% and a viability, T/C (second compound 3.16 µM, first compound 0.00999 µM) of 113%. For the same compound, the viability, T/C [25] was 104%, the viability, T/C (second compound 3.16 µM, first compound 0.0999 µM) was 87.5% and the viability, T/C [27] was 95%. The viability, T/C (second compound 10 µM, first compound 0.000999 µM) was 105%, the viability, T/C (second compound 10 µM, first compound 0.00316 µM) was 103% and the viability, T/C (second compound 10 µM, first compound 0.00999 µM) was 101%. For the same compound, the viability, T/C [31] was 107%, the viability, T/C (second compound 10 µM, first compound 0.0999 µM) was 82.1% and the viability, T/C [33] was 86.4%.
O=C(c1cc(Cc2n[nH]c(=O)c3ccccc23)ccc1F)N1CCN(C(=O)C2CC2)CC1 + Cc1[nH]c2ccc(F)cc2c1-c1nc2c3cccnc3c3ncccc3c2[nH]1 was tested, and the pIC50 (second compound 0.0316 µM) was under 5.00, the pIC50 (second compound 0.1 µM) was under 5.00 and the pIC50 (second compound 0.316 µM) was under 5.00. For the same compound, the pIC50 (second compound 1 µM) was under 5.00, the pIC50 (second compound 3.16 µM) was under 5.00 and the pIC50 (second compound 10 µM) was under 5.00. It also gave a viability, T/C [1] of 110%, a viability, T/C [2] of 91.6% and a viability, T/C [3] of 103%. The viability, T/C [4] was 90.9%, the viability, T/C [5] was 98.8% and the viability, T/C [6] was 54.9%. It also gave a viability, T/C [7] of 93.2%, a viability, T/C [8] of 106% and a viability, T/C [9] of 97%. For the same compound, the viability, T/C [10] was 100%, the viability, T/C [11] was 82.3% and the viability, T/C [12] was 66.2%. It also gave a viability, T/C [13] of 98.1%, a viability, T/C [14] of 94.5% and a viability, T/C [15] of 91.3%. For the same compound, the viability, T/C [16] was 92.6%, the viability, T/C [17] was 89.9% and the viability, T/C [18] was 53.8%. It also gave a viability, T/C [19] of 79.3%, a viability, T/C [20] of 99.4% and a viability, T/C [21] of 97.4%. The viability, T/C [22] was 86%, the viability, T/C [23] was 89.2% and the viability, T/C [24] was 62.1%. The viability, T/C [25] was 99%, the viability, T/C [26] was 101% and the viability, T/C [27] was 113%. The viability, T/C [28] was 105%, the viability, T/C [29] was 93.1% and the viability, T/C [30] was 68.3%. It also gave a viability, T/C [31] of 89%, a viability, T/C [32] of 102% and a viability, T/C [33] of 114%. The viability, T/C [34] was 87.6%, the viability, T/C [35] was 86.5% and the viability, T/C [36] was 59.2%.
